From US20100324290A1, “CRYSTALLINE FORM I OF LAMIVUDINE AND ITS PREPARATION” (RANBAXY LABORATORIES LIMITED, priority 2007, published 2010)
Like-named read-outs stand apart in the source and are kept apart here.

Legend:
[1] = Storage stability of crystalline Form I (solid form after storage, XRPD); type: physicochemical
Description: (§1) XRPD of the samples were obtained by using Panalytical X′Pert Pro X-Ray Powder Diffractometer in the range 3-40 degree 2 theta and under tube voltage and current of 45 Kv and 40 mA respectively. Copper radiation of wavelength 1.54 angstrom and Xceletor detector was used. Form II of lamivudine: Not detectable (Limit of detection: 0.5% by XRPD) The stable crystalline Form I of lamivudine obtained from Example 2 was subjected to the following conditions: […]

[2] = Stability of crystalline Form I to milling (solid form after milling, XRPD); type: physicochemical
Description: as §1, with “In one aspect, a stable crystalline Form I of lamivudine is provided. […] The term milling refers to an act or process of grinding, crushing, pulverizing, powdering, atomizing, pestling, levigating, sifting, sieving, size reducing, or passing through a milling device. […] XRPD of” for “XRPD of”

[3] = during milling and formulation operation; prior-art Form I per WO 2007/119248; cited from earlier work

| Resultant Material after storage ([1]; Stored at 25 ± 2° C. at 60 ± 5% RH for 3 months) | Resultant Material after storage ([1]; Stored at 40 ± 2° C. at 75 ± 5% RH for 1 month) | Resultant Material after storage ([1]; Stored at 40 ± 2° C. at 75 ± 5% RH for 2 months) | Resultant Material after storage ([1]; Stored at 40 ± 2° C. at 75 ± 5% RH for 3 months) | Solid-form stability on storage ([1]; stored up to three months at a temperature up to about 45° C. and at a relative humidity of about 25% to about 85%) | Resultant Material after milling ([2]; Milled in a multimill (2 mm mesh size)) | Conversion of solid form on milling ([2]; pharmaceutical operations such as milling) | Compound | Conversion of solid form on milling [3] |
| --- | --- | --- | --- | --- | --- | --- | --- | --- |
| Form I | Form I | Form I | Form I | remains stable | Form I | does not convert to Form II | Nc1ccn([C@@H]2CS[C@H](CO)O2)c(=O)n1 [Form I obtained from Example 2, (2R,cis)-4-amino-1-(2-hydroxymethyl-1,3-oxathiolan-5-yl)-(1H)-pyrimidin-2-one] |  |
|  |  |  |  |  |  |  | Nc1ccn([C@@H]2CS[C@H](CO)O2)c(=O)n1 [Form I, (2R,cis)-4-amino-1-(2-hydroxymethyl-1,3-oxathiolan-5-yl)-(1H)-pyrimidin-2-one] | converts to Form II |
